For this series the following is noted: from C=CCOCC(c1ccc([C@H](C)Nc2ncc3c(n2)N([C@@H](C)CC=C)C(=O)OC3)cc1)N1CCN(C(=O)OC(C)(C)C)CC1; rcm bond; 18-membered ring; Hoveyda-Grubbs II (0.1 eq); DCE; 8.24 mM; 60.0 °C; 9.0 h.

On to `C[C@@H]1Nc2ncc3c(n2)N(C(=O)OC3)[C@@H](C)CC=CCOCC(N2CCN(C(=O)OC(C)(C)C)CC2)c2ccc1cc2` (stereo partly shown), for which the ring closure, yield after HPLC is 27.6%.

The record behind these values is patent US20250049809A1, “INHIBITORS OF MUTANT IDH1 AND IDH2” (Board of Regents, The University of Texas System, priority 2023, published 2025).
